Values quoted from earlier work, collected in patent US20250215044A1, “Compounds and Methods for Inhibiting LPA” (Ionis Pharmaceuticals, Inc., priority 2023, published 2025).

Tested on: plasma Lp(a)
Parameters: concentration or dose not given beside the values
Details: clinical setting

Molecule | reduction of plasma Lp(a) levels [%]
COc1cc(F)c(C(C)C)cc1-c1ccc(C(F)(F)F)cc1CN1C(=O)O[C@H](c2cc(C(F)(F)F)cc(C(F)(F)F)c2)[C@@H]1C [Anacetrapib] | 36
CC(C)c1cc(Oc2c(Br)cc(NC(=O)CC(=O)O)cc2Br)ccc1O [Epirotirome] | 43
O=C(NC1CCN(CCCCC2(C(=O)NCC(F)(F)F)c3ccccc3-c3ccccc32)CC1)c1ccccc1-c1ccc(C(F)(F)F)cc1 [Lomitapide] | 17
O=C(O)c1cccnc1 [Niaspan] | 39
CC(=O)Oc1ccccc1C(=O)O [aspirin] | 18
Mipomersen | 32
